In patent US4485088A, “Method of treatment of fibrotic lesions by topical administration of lathyrogenic drugs” (Bio-Products, Inc., priority 1982, dated 1984):
Entries after “also recorded” stand apart in the source; their conditions may differ. Where a name gives a salt, the structure may show the parent alone. Read-outs that look alike come from different tables or passages of the source.

Tests used:
[1] = Percutaneous absorption of BAPN-fumarate, drug recovery in urine (Example 1); type: in vivo, rats, Sprague Dawley
Method: Adult rats, Sprague Dawley strain, were shaved on the dorsum. A 0.1 ml solution of 0.16M β-aminopropionitrile fumarate, containing 30 mg BAPN/ml of phosphate buffer (0.1M, pH 7.2) and for easy detection 2 μCi of ^14 C-β-aminopropionitrile fumarate was painted on the shaved skin area 2×2 cm of a rat. In another rat, the shaved skin was washed first with 2% Ivory soap, in the next group the skin area after painting was covered with occlusive bandage. In another group of rats (Table 1) the drug was administered onto the skin the drug in 60% dimethyl sulfoxide, a solvent known to increase percutaneous absorption. Finally, in the last group (Table 1), the basic solution was administered into a small container made of a hydrogel polymer. This hydrogel is characterized by containing 80% water. It makes good contact with the skin, allows penetration of the drug through the container wall, hydrates the skin under the occlusive dressing, thus enhancing the percutaneous transport.
^14 C--BAPNfumarate, 2 μCi in 30 mg BAPNfumarate/ml, 0.1 ml
*% recovered in 24 hours

[2] = Recovery from urine after administration on skin through hydrophilic bag container (Example 2); type: in vivo, rats
Method: The experimental conditions were similar to those of Example 1 for Group 6. A 0.4 ml solution of 1.1M β-aminopropionitrile fumarate containing 200 mg/ml and 2 μCi of the same ^14 C labeled substance was placed into a hydrophilic bag membrane. This membrane contained 80% water. The container bag was placed onto the shaved skin area of 4 cm^2, covered with impermeable occlusive dressing represented by Blenderm surgical tape (3M, Minnesota). The rats were placed in metabolic cages and at defined time intervals, the urine was collected and the amount of radioactive drug determined.
Time indicates the urine sampling period. Recovery is given in percent of the dose administered into the hydrophilic bag.

[3] = Acute toxicity, LD50 (Example 3); set-up: species or system CD-1 mice; conditions: mouse, in vivo, 24-hour observation
Method: The determination of lethal dose, killing within a certain time after the administration of the tested drug 50% of the exposed animals, is a standard method of evaluation of the toxicity of a drug.
A total of 40 male CD-1 mice with a body weight of 20 g were injected either intraperitoneally with β-aminopropionitrile fumarate or the drug was applied in a solution onto the shaved dorsal aspect of the skin. Four dosage levels spaced in geometric progression were evaluated using five animals for each dose.

lysyl oxidase [4] = assay: Lysyl oxidase activity in granuloma tissue after topical application (Example 4); type: in vivo, rats, Sprague-Dawley
Method: Two groups of rats, four rats in each group, 250 g body weight, Sprague-Dawley males, were implanted subcutaneously with a polyvinylalcohol sponge (Ivalon, Unipoint Labs, New Jersey) in the dorsal region through an incision distal from the placement of the sponge.
A solution of 0.1 ml of β-aminopropionitrile (200 mg BAPN/ml) was applied every 12 hours onto the skin over the implanted sponge for a total of seven days. Then the rats were sacrificed, reactive granuloma tissue excised and used for the determination of the activity of lysyl oxidase.
There were four rats in each group.
Variability is given by standard deviation.
Significance of the results tested by Student's t-test.

[5] = Work of flexion of tenolyzed flexor profundus tendon (Example 5); type: in vivo, White Leghorn chickens
From the text: will document the therapeutic effectiveness of direct infusions of β-aminopropionitrile fumarate solution into the dissected peritendinous adhesions in a rooster model of tendon injury.
Adult White Leghorn chickens were sedated with Pentothal, fixed to the operating table and given metacarpal local anesthesia with 1% xylocaine. Following surgical prep of the foot, a tourniquet was applied. Through a mid-lateral incision the sublimus tendon was removed from the long digit of both feet and a 4-0 braided stainless steel wire was passed through the entire length of the remaining profundus tendon to promote injury to the tendon by "scarification". The incision was closed with a continuous nylon suture, 4-0. Both feet were then incorporated in a plaster of Paris dressing with the feet in a functional position permitting the animals to walk while in the plaster.
Three weeks later the animals were prepared for surgery as above and the original incision was opened. A complete tenolysis was performed freeing the profundus tendon from surrounding fibrotic adhesions. […]
After 5 days of BAPN application the animals were sacrificed, the plaster dressings removed, and the legs amputated. […] The leg was then mounted in an Instron Tensiometer and measured traction was applied to the flexor profundus tendon at a rate of 2.5 cm/min while the flexion of the three digital joints was measured. […]

lysyl oxidase [6] = conditions: cited from earlier work
collagen [7] = conditions: cited from earlier work
monoamine oxidase (MAO) = conditions: cited from earlier work
lysyl oxidase [8] = conditions: isoniazid with BAPN; cited from earlier work
[9] = Topical cytotoxicity of BAPN; type: in vivo
From the text: Although the pathogenesis of the above disorders may differ, in every one it was postulated that the physical properties of the scar tissue were affected by abnormal cross-linking of the collagenous component. A variety of methods was proposed and used to alleviate the problems of abnormal reactivity of polymerized scar tissue (Peacock and Van Winkle 1976). […] The ideal method of topical administration would be the noninvasive percutaneous resorption of BAPN painted onto the skin as proposed in this disclosure. […] These findings assured me that topical BAPN is safe, effective and optimal therapeutic regimen to achieve significant interference with maturation of collagenous structure in tissues with an injury.

lysyl oxidase [10] = conditions: single systemic moderate dose; cited from earlier work
scleroderma = conditions: cited from earlier work
human collagen = conditions: in vivo; cited from earlier work
collagen [11] = conditions: cited from earlier work; remark: listed apart in the source
[12] = systemic, rats; cited from earlier work
[13] = systemic, dogs; cited from earlier work
[14] = Skin penetration of BAPN base versus BAPN fumarate; type: in vitro ADME; conditions: BAPN base vs BAPN fumarate
[15] = Storage stability of BAPN base; type: physicochemical

## N#CCCN [BAPN-fumarate, β-aminopropionitrile fumarate]
[1]; hydrophilic container with occlusive dressing vs phosphate buffer on intact skin
  Increase of delivery, Group 6 compared with Group 1: ~40 times
[1]; in phosphate buffer in 60% DMSO
  Drug Recovery in the Urine, % Recovered in 6 hours: 11.66%
[1]; in phosphate buffer in 60% DMSO, skin washed in 2% Ivory soap
  Drug Recovery in the Urine, % Recovered in 6 hours: 10.10%
[1]; in phosphate buffer on intact skin
  Drug Recovery in the Urine, % Recovered in 6 hours: 0.97%
[1]; in phosphate buffer, skin washed with 2% Ivory soap
  Drug Recovery in the Urine, % Recovered in 6 hours: 2.17%
[1]; in phosphate buffer, skin washed with 2% Ivory soap, occlusive bandage
  Drug Recovery in the Urine, % Recovered in 6 hours: 10.56%
[1]; in phosphate buffer, skin washed with 2% Ivory soap, hydrophilic container, occlusive bandage, 24 hours
  Drug Recovery in the Urine, % recovered in 24 hours: 35.00%
[2]; 120 hours of observation
  Release / penetration over time: continuous at the constant rate
[3]; ip, intraperitoneally
  LD50 at 24 h: 3000 mg/kg
[3]; topical or ocular, percutaneously
  LD50 at 24 h: 23100 mg/kg
Lysyl oxidase [4]; topical, 0.1 ml of 200 mg/ml every 12 hours for seven days, control 36.2 ± 7.1, P < 0.001, standard deviation
  Lysyl Oxidase Activity in the granuloma tissue: 1.8 ± 0.3 DPM/mg protein
[5]; topical infusion
  Tendon gliding: glided more easily; much lower force was needed to flex the finger
[5]; topical infusion every 12 hours for 5 days, 300 mg/ml, SD 4.25, saline control 44.8 (SD 9.9), P < 0.01
  Work of Flexion (Mean): 13.10 gm/degree

## CC(C)(S)[C@@H](N)C(=O)O [D-penicillamine]
Lysyl oxidase [6]
  Direct inhibition of lysyl oxidase: direct inhibition of lysyl oxidase by D-penicillamine was demonstrated
Collagen [7]; after treatment
  Changes in metal content in tissues and fluids: Striking changes in the metal content in various tissues and fluids
Collagen [7]; clinical studies, systemic
  Acute hypersensitivity reactions: high incidence of acute hypersensitivity reactions
Collagen [7]; systemic
  Decrease of structural stability of collagen: well-documented

## NNC(=O)c1ccncc1 [isoniazid]
Lysyl oxidase [6]
  Lysyl oxidase inhibition: weak lysyl oxidase and MAO inhibitor
Monoamine oxidase (MAO)
  Monoamine oxidase (MAO) inhibition: weak lysyl oxidase and MAO inhibitor
Lysyl oxidase [8]
  Lathyritic effect of BAPN in combination: potentiate the lathyritic effects of BAPN

## N#CCCN [BAPN, β-aminopropionitrile]
[2]; 4 hours
  Recovery in Urine (In % of the Total Dose): 0.5%
[2]; 8 hours
  Recovery in Urine (In % of the Total Dose): 1.01%
[2]; 12 hours
  Recovery in Urine (In % of the Total Dose): 2.37%
[2]; 24 hours
  Recovery in Urine (In % of the Total Dose): 5.40%
[2]; 72 hours
  Recovery in Urine (In % of the Total Dose): 9.9%
[2]; 96 hours
  Recovery in Urine (In % of the Total Dose): 15.2%
[2]; 120 hours
  Recovery in Urine (In % of the Total Dose): 22.5%
Lysyl oxidase [4]; painted onto skin over implanted sponge
  Inhibition of lysyl oxidase in granuloma tissue: significant inhibition of the enzyme activity in the lesion; also recorded: effectively inhibits lysyl oxidase in granuloma tissue
[9]
  Topical cytotoxicity, morphological or ultrastructural: no morphological or ultrastructural evidence of topical cytotoxicity is found
Lysyl oxidase [6]
  Concentration inhibiting lysyl oxidase: 10^-7 M
  Effectiveness as lathyrogenic agent on lysyl oxidase: the most effective
  Reversibility of lysyl oxidase inhibition: irreversible
Lysyl oxidase [10]
  Time to recovery of lysyl oxidase activity in granuloma tissue: 6 to 12 h
scleroderma; 2 g/day, short-term
  Toxic side effects, short-term treatment: no toxic side effects were noted
scleroderma; longer courses of treatment
  Adverse reactions, longer courses: prohibitive reactions, such as allergic skin rash and hemolytic anemia
Human collagen
  Covalent bonding of human collagen / clinical benefit: decreased covalent bonding of human collagen with significant clinical benefit was demonstrated
  Hypersensitivity: a significant number of the patients exhibited hypersensitivity to the agent
Collagen [11]; systemic, animals
  General toxicity at lathyrogenic dosages: the animals stop growing, lose body weight and lower their food intake
Collagen [11]; various animal models of fibrotic lesion
  Blocking the polymerization of collagen: very effective
[12]
  Side effects: undesirable side effects
  Tendon gliding / joint stiffness: significantly improve the tendon gliding fraction or reduce stiffness
[13]
  Side effects: undesirable side effects
  Tendon gliding / joint stiffness: significantly improve the tendon gliding fraction or reduce stiffness

## C#CCN(C)Cc1ccccc1 [pargyline]
Monoamine oxidase (MAO)
  Monoamine oxidase (MAO) inhibition: monoamine oxidase (MAO) inhibitor

## N#CCCN [BAPN base]
[14]
  Skin penetration relative to BAPN fumarate: approximately five times faster
[14]; listed as BAPN-base
  Skin penetration relative to BAPN fumarate: higher penetration
[15]
  Stability under storage: unstable under storage, undergoing hydrolysis forming ammonia and toxic acrylonitrile

## N#CCN [aminoacetonitrile]
Lysyl oxidase [6]
  Effectiveness as lathyrogenic agent on lysyl oxidase: the most effective
